We go through 19 molecules from patent US8153630B2, “Kinase inhibitors” (Miikana Therapeutics, Inc., priority 2004, dated 2012).

One assay has as its system HCT 116 Cells. Nature of the assay: Aurora kinase whole cell cytotoxicity assay: Sulforhodamine B. The format is cell-based. To be noted: Homo sapiens, HCT116, SRB staining, 96 hours incubation. Here is the method: Human tumour-derived cell lines, HCT116 or MCF7 (ATCC) were plated in a 96 well plate in DMEM containing 10% fetal bovine serum and 2 mM L-glutamine at a density of 500 HCT116 cells or 1,000 MCF7 cells per well and incubated at 37° C., 5% CO2, for 24 hours prior to the addition of experimental compounds. Compounds were added using the dilution series indicated to duplicate plates and the cells were incubated in media plus compound for 96 hours. An additional plate was fixed in 10% TCA at the time of the addition of compound to provide a measurement of the cell population at time zero, the time of drug addition. Following the 96 hour incubation, cells were fixed in situ by gently aspirating off the culture media and then adding 50 ul of ice cold 10% TCA per well and incubation at 4° C. for 60 minutes. The plates were washed with tap water five times and allowed to air dry for 5 minute. 50 ul of a 0.4% (w/v) Sulforhodamine B solution in 1% (v/v) acetic acid was added per well and the cells were incubated for 30 minutes at room temperature. Following staining, plates were washed four times with 1% acetic acid to remove any unbound dye and then allowed to air dry for 5 minutes. The stain was solubilized with 100 ul of 10 mM Tris pH 10.5 per well and placed on an orbital rotator for 5 minutes. The absorbance was read at 570 nm. Percentage growth was calculated using the absorbance readings from the time zero plate (Tz) and the dilution series plate […] which included a column of cells grown in media without compound as a control (C) using the formulas: [(Ti−Tz)/(C−Tz)]×100 for concentrations for which Ti>/=Tz [(Ti−Tz)/Tz]×100 for concentrations for which Ti<Tz.
Three dose response parameters were calculated for each experimental agent. Growth inhibition of 50% (GI50) was calculated from [(Ti−Tz)/(C−Tz)]×100=50, which was the drug concentration resulting in a 50% reduction in the net protein increase (as measured by SRB staining) in control cells during the drug incubation. The drug concentration resulting in total growth inhibition (TGI) was calculated from Ti=Tz. The LC50 (concentration of drug resulting in a 50% reduction in the measured protein at the end of the drug treatment as compared to that at the beginning) indicating a net loss of cells following treatment ws calculated from [(Ti−Tz)/Tz]×100=−50. Values are calculated for each of these three parameters if the level of activity was reached; however, if the effect was not reached or was exceeded, the value for that parameter is expressed as greater or less than the maximum or minimum concentration tested.
On the technique in general: In SRB staining, fixed cells bind dye roughly in proportion to their protein.

In another assay the target is T1, recombinant Aurora A (Homo sapiens, UniProt O14965).
T1 construct: purchased Upstate, Lake Placid, N.Y
T1 sequence (O14965 1-403): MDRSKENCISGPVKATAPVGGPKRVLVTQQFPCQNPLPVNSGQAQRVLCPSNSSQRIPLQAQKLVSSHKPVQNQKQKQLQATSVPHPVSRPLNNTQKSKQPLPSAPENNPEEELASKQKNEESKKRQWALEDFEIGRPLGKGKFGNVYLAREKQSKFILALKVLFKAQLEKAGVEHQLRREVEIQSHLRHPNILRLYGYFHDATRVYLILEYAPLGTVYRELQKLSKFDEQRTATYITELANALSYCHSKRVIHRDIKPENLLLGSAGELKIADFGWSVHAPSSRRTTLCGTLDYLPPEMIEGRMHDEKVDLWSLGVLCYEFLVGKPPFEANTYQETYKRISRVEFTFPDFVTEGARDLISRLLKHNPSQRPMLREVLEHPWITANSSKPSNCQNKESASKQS
Nature of the assay: PanVera Z'-Lyte Aurora kinase assay. Format: biochemical. To be noted: Z'-Lyte Ser/Thr 1 peptide 2 μM, ATP 10 μM, 1 h. Here is the method: Compounds 7-14 above were tested for their potency against recombinant Aurora A (Upstate, Lake Placid, N.Y.) using the PanVera Z'-Lyte kinase assay kit—Ser/Thr 1 peptide (Invitrogen, Carlsbad, Calif.). Assays were carried out in kinase assay buffer (50 mM HEPES, pH 7.5, 10 mM MgCl2, 5 mM EGTA, 0.05% Brij-35, 2 mM DTT). Test compounds were initially dissolved in DMSO at 100× the highest tested concentration, then serially diluted to 4× test concentrations in kinase assay buffer. Next, Aurora A (final concentration 200-500 ng/mL), Z′-Lyte Ser/Thr 1 peptide (final concentration 2 μM) and ATP (final concentration 10 μM) were added according to the manufacturer's instructions. Assays were carried out in half-area 96-well white polystyrene assay plates (Corning, Corning, N.Y.) in a final volume of 20 μL. The reaction was allowed to proceed for 1 h at room temperature in the dark, at which point the development reagent and stop reagent were added according to the manufacturer's instructions. Coumarin (Ex. 400 nm, Em. 465 nm) and fluorescein (Ex. 400 nm, Em. 565 nm) fluorescence values were measured on a SpectraFluor Plus plate reader (Tecan, Durham, N.C.). The emission ratio (coumarin/fluorescein) was determined and used to calculate the percent phosphorylation for each well. Wells containing substrate but no kinase and wells containing a phosphopeptide control were used to set 0% and 100% phosphorylation values, respectively. Typically 20-40% of the substrate was phosphorylated in wells without inhibitor. Dose-response curves of relative Aurora A activity vs. inhibitor concentration were plotted with Grafit (Erithacus Software, Horley, Surrey, UK) and used to calculate IC50 values.

The GI50 is the concentration that inhibits growth by half. Higher therefore signals lower sensitivity of the cells. The IC50 is the concentration that gives 50% inhibition. The molecule `Cc1cc(Nc2nc(Sc3ccc(NC(=O)C4CC4)cc3)nc(C(=O)OCCO)c2N)n[nH]1` [Compound 50, 2-Hydroxyethyl 2-(4-cyclopropanecarboxamidophenylsulfanyl)-5-amino-6-(5-methylpyrazol-3-ylamino)-4-pyrimidinecarboxylate] showed a GI50 in the assay with HCT 116 Cells of 1000 to 10000 nM. For the same molecule, the IC50 on recombinant Aurora A was below 100 nM. For `COCC(C)NC(=O)c1nc(Sc2ccc(NC(=O)C3CC3)cc2)nc(Nc2cc(C)[nH]n2)c1N` (centres unmarked) [Compound 61, N-(2-Methoxy-1-methylethyl) 2-(4-cyclopropanecarboxamidophenylsulfanyl)-5-amino-6-(5-methylpyrazol-3-ylamino)-4-pyrimidinecarboxamide], in that order: 100 to 1000 nM and below 100 nM. `Cc1cc(Nc2nc(Sc3ccc(NC(=O)C4CC4)cc3)nc(C(=O)O)c2N)n[nH]1` [Compound 8, 2-(4-Cyclopropanecarboxamidophenylsulfanyl)-5-amino-6-(5-methylpyrazol-3-ylamino)-4-pyrimidinecarboxylic acid]: the IC50 at recombinant Aurora A is below 100 nM. For `Cc1cc(Nc2nc(Sc3ccc(NC(=O)C4CC4)cc3)nc(C(=O)NCc3cccs3)c2N)n[nH]1` [Compound 59, N-(2-Thien-2-ylmethyl) 2-(4-cyclopropanecarboxamidophenylsulfanyl)-5-amino-6-(5-methylpyrazol-3-ylamino)-4-pyrimidinecarboxamide], the concentration for 50% growth inhibition (GI50) with HCT 116 Cells fell in the range of 1000 to 10000 nM. Also, the 50% inhibitory concentration (IC50) on recombinant Aurora A was below 100 nM. With `CCOC(=O)c1nc(S(=O)(=O)c2ccc(NC(=O)C3CC3)cc2)nc(Nc2cc(C)[nH]n2)c1N` [Compound 13, Ethyl 2-(4-cyclopropanecarboxamidophenylsulfonyl)-5-amino-6-(5-methylpyrazol-3-ylamino)-4-pyrimidinecarboxylate], on recombinant Aurora A, the IC50 was below 100 nM. On to `Cc1cc(Nc2nc(Sc3ccc(NC(=O)C4CC4)cc3)nc(C(=O)OCc3ccccc3)c2N)n[nH]1` [Compound 66, Benzyl 2-(4-cyclopropanecarboxamidophenylsulfanyl)-5-amino-6-(5-methylpyrazol-3-ylamino)-4-pyrimidinecarboxylate], for which, in the assay with HCT 116 Cells, the GI50 was in the range of 100 to 1000 nM. Also, on recombinant Aurora A, the IC50 was below 100 nM.

For the molecule `CNC(=O)c1nc(Sc2ccc(NC(=O)C3CC3)cc2)nc(Nc2cc(C)[nH]n2)c1N` [Compound 9, Methyl 2-(4-cyclopropanecarboxamidophenylsulfanyl)-5-amino-6-(5-methylpyrazol-3-ylamino)-4-pyrimidinecarboxamide], the IC50 at recombinant Aurora A was below 100 nM. `Cc1cc(Nc2nc(Sc3ccc(NC(=O)C4CC4)cc3)nc(C(=O)OCCN3CCOCC3)c2N)n[nH]1` [Compound 18, 2-Morpholin-4-ylethyl 2-(4-cyclopropanecarboxamidophenylsulfanyl)-5-amino-6-(5-methylpyrazol-3-ylamino)-4-pyrimidinecarboxylate]: in the assay with HCT 116 Cells, the GI50 lay in the range of 1000 to 10000 nM. Moreover, the IC50 at recombinant Aurora A is below 100 nM. Take `Cc1cc(Nc2nc(Sc3ccc(NC(=O)C4CC4)cc3)nc(C(=O)Nc3ccccc3)c2N)n[nH]1` [Compound 60, N-Phenyl 2-(4-cyclopropanecarboxamidophenylsulfanyl)-5-amino-6-(5-methylpyrazol-3-ylamino)-4-pyrimidinecarboxamide]: the IC50 on recombinant Aurora A lay within 100 to 1000 nM.

`Cc1cc(Nc2nc(Sc3ccc(NC(=O)C4CC4)cc3)nc(C(=O)OC(C)C)c2N)n[nH]1` [Compound 49, Isopropyl 2-(4-cyclopropanecarboxamidophenylsulfanyl)-5-amino-6-(5-methylpyrazol-3-ylamino)-4-pyrimidinecarboxylate] registered a GI50 with HCT 116 Cells of 100 to 1000 nM. Besides, the IC50 on recombinant Aurora A was below 100 nM. The like results for `CSCCOC(=O)c1nc(Sc2ccc(NC(=O)C3CC3)cc2)nc(Nc2cc(C)[nH]n2)c1N` [Compound 41] were, in that order, 100 to 1000 nM and below 100 nM. The like results for `Cc1cc(Nc2nc(Sc3ccc(NC(=O)C4CC4)cc3)nc(C(=O)NCc3ccco3)c2N)n[nH]1` [Compound 58, N-(2-Furylmethyl) 2-(4-cyclopropanecarboxamidophenylsulfanyl)-5-amino-6-(5-methylpyrazol-3-ylamino)-4-pyrimidinecarboxamide] were, in that order, 1000 to 10000 nM and below 100 nM.

`COCCCNC(=O)c1nc(Sc2ccc(NC(=O)C3CC3)cc2)nc(Nc2cc(C)[nH]n2)c1N` [Compound 55, N-(3-Methoxypropyl) 2-(4-cyclopropanecarboxamidophenylsulfanyl)-5-amino-6-(5-methylpyrazol-3-ylamino)-4-pyrimidinecarboxamide] gave a GI50 in the assay with HCT 116 Cells of 100 to 1000 nM. Also, the IC50 on recombinant Aurora A is below 100 nM. As for `CCOC(=O)c1nc(Nc2ccc(NC(C)=O)nc2)nc(Nc2cc(C)[nH]n2)c1N` [Compound 34, Ethyl 2-(6-acetylamido-3-pyridylamino)-5-amino-6-(5-methylpyrazol-3-ylamino)-4-pyrimidinecarboxylate], the IC50 at recombinant Aurora A lay within 100 to 1000 nM. For the molecule `Cc1cc(Nc2nc(Sc3ccc(NC(=O)C4CC4)cc3)nc(C(=O)Nc3ccncc3)c2N)n[nH]1` [Compound 51, N-Pyridin-4-yl 2-(4-cyclopropanecarboxamidophenylsulfanyl)-5-amino-6-(5-methylpyrazol-3-ylamino)-4-pyrimidinecarboxamide], the concentration for 50% growth inhibition (GI50) with HCT 116 Cells fell in the range of 1000 to 10000 nM. For the same molecule, the IC50 at recombinant Aurora A was below 100 nM. With `CCOC(=O)c1nc([S+]([O-])c2ccc(NC(=O)C3CC3)cc2)nc(Nc2cc(C)[nH]n2)c1N` (centres unmarked) [Compound 14, ethyl 2-(4-cyclopropane-carboxamidophenylsulfinyl)-5-amino-6-(5-methylpyrazol-3-ylamino)-4-pyrimidinecarboxylate], the IC50 at recombinant Aurora A was below 100 nM. In turn, `Cc1cc(Nc2nc(Sc3ccc(NC(=O)C4CC4)cc3)nc(C(=O)NC3CCCCC3)c2N)n[nH]1` [Compound 62, N-Cyclohexyl 2-(4-cyclopropanecarboxamidophenylsulfanyl)-5-amino-6-(5-methylpyrazol-3-ylamino)-4-pyrimidinecarboxamide] came in with a GI50 with HCT 116 Cells of 1000 to 10000 nM. The half-maximal inhibitory concentration (IC50) at recombinant Aurora A lay in the range of 100 to 1000 nM. For `Cc1cc(Nc2nc(Sc3ccc(NC(=O)C4CC4)cc3)nc(C(=O)OC3CCOCC3)c2N)n[nH]1` [Compound 19, Tetrahydro-2H-pyran-4-yl 2-(4-cyclopropanecarboxamidophenylsulfanyl)-5-amino-6-(5-methylpyrazol-3-ylamino)-4-pyrimidinecarboxylate], in that order: 100 to 1000 nM and below 100 nM.

Molecule `COC(=O)c1nc(Sc2ccc(NC(=O)C3CC3)cc2)nc(Nc2cc(C)[nH]n2)c1N` [Compound 7, Methyl 2-(4-cyclopropanecarboxamidophenylsulfanyl)-5-amino-6-(5-methylpyrazol-3-ylamino)-4-pyrimidinecarboxylate] came in with a GI50 in the assay with HCT 116 Cells of 100 to 1000 nM. At recombinant Aurora A, the IC50 was below 100 nM.
